Among the data in ChEMBL document CHEMBL4402510, “Caprazamycins: Promising lead structures acting on a novel antibacterial target MraY” (Eur J Med Chem, 2019) are IC50, MIC and MIC50 values, retold here.

Converted amounts (≈) assume the structure as drawn.

Test [1] addresses T1, Phospho-N-acetylmuramoyl-pentapeptide-transferase (Aquifex aeolicus (strain VF5), UniProt O66465).
T1 sequence (O66465 whole entry): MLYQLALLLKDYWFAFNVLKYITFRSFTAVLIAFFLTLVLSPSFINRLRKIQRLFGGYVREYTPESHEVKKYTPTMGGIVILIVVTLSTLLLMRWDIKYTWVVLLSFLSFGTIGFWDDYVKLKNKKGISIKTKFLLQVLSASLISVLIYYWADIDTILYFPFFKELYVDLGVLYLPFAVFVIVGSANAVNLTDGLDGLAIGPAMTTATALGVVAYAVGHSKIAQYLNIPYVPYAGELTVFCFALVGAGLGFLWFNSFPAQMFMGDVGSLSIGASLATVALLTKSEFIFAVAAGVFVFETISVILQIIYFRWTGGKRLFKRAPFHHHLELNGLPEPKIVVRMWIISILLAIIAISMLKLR
The test is described as follows: Inhibition of MraY in Aquifex aeolicus.

Test [2] has as its system Enterococcus faecalis. Kind of test: Antibacterial activity against Enterococcus faecalis SR7914 (VRE). The test is classed as functional.
For a further test, the system named is Enterococcus faecium. Kind of test: Antibacterial activity against Enterococcus faecium SR7917 (VRE). The class given is functional.
In test [3] the test system is Staphylococcus aureus. Kind of test: Antibacterial activity against methicillin resistant Staphylococcus aureus SR3637. The test is classed as functional.
Test [4] has as its system Staphylococcus aureus. Kind of test: Antibacterial activity against methicillin susceptible Staphylococcus aureus ATCC 29213. The test is classed as functional.
The subject of test [5] is Enterococcus faecalis. Kind of test: Antibacterial activity against Enterococcus faecalis ATCC 29212. The test is classed as functional.
The subject of another test is Escherichia coli. Kind of test: Antibacterial activity against Escherichia coli expressing MraY. The class given is functional, organism-based.

Usually IC50 stands for the concentration that gives 50% inhibition. Take `NC[C@H]1O[C@@H](O[C@@H](Cc2cn(CCOCCOCCOCCOCCO)nn2)[C@H]2O[C@@H](n3ccc(=O)[nH]c3=O)[C@H](O)[C@@H]2O)[C@H](O)[C@@H]1O`: 750 µM corresponded to half-maximal inhibition in test [1] (IC50).
As usually defined, the MIC is the lowest concentration found to suppress growth. `CCCCCCCCCCCCCCC[C@H](NC(=O)[C@@H](N)CCCNC(=N)N)C(=O)NC[C@@H]1CC[C@H]2C(C(=O)N1)[C@H]([C@H]1O[C@@H](n3ccc(=O)[nH]c3=O)[C@H](O)[C@@H]1O)ON2CCCN` (single isomer, unassigned): the minimal inhibitory concentration (MIC) in the test on Enterococcus faecalis [2] was found to be 16 µg/mL (≈ 18.2 µM); in the test on Enterococcus faecium it was 8 µg/mL (≈ 9.11 µM); in the test with Staphylococcus aureus [3] it was 32 µg/mL (≈ 36.4 µM); against Staphylococcus aureus [4], 16 µg/mL (≈ 18.2 µM); against Enterococcus faecalis [5] it was 16 µg/mL (≈ 18.2 µM).
The compound `NC[C@H]1O[C@@H](O[C@@H](Cn2cc(CCCCCCCCCCO)nn2)[C@H]2O[C@@H](n3ccc(=O)[nH]c3=O)[C@H](O)[C@@H]2O)[C@H](O)[C@@H]1O` came in with a concentration for half-maximal inhibition (IC50) in test [1] of 75 µM. That is a double-digit micromolar value.
For `CN(C)C[C@H]1O[C@@H](OC[C@H]2O[C@@H](n3ccc(=O)[nH]c3=O)[C@H](O)[C@@H]2O)[C@H](O)[C@@H]1O`, in the test with Escherichia coli, the IC50 was over 1000 µM.
For the compound `CCCNC[C@H]1O[C@@H](OC[C@H]2O[C@@H](n3ccc(=O)[nH]c3=O)[C@H](O)[C@@H]2O)[C@H](O)[C@@H]1O`, in the test with Escherichia coli, it took 140 µM to reach half-maximal inhibition (IC50).
`CCCCCCCCCCCCCCC[C@H](NC(=O)[C@@H](N)CCCNC(=N)N)C(=O)NC[C@@H]1CC2[C@@H](C(=O)N1)[C@H]([C@H]1O[C@@H](n3ccc(=O)[nH]c3=O)[C@H](O)[C@@H]1O)ON2CCCN` (single isomer, unassigned): the minimum inhibitory concentration (MIC) against Enterococcus faecalis [2] is 32 µg/mL (≈ 37 µM); in the test on Enterococcus faecium it was 16 µg/mL (≈ 18.5 µM); in the test on Staphylococcus aureus [3], 32 µg/mL (≈ 37 µM); with Staphylococcus aureus [4], over 64 µg/mL; in the test on Enterococcus faecalis [5], 16 µg/mL (≈ 18.5 µM).
In the test on Escherichia coli, `N/C=N/C[C@H]1O[C@@H](OC[C@H]2O[C@@H](n3ccc(=O)[nH]c3=O)[C@H](O)[C@@H]2O)[C@H](O)[C@@H]1O` registered an IC50 of 30 µM.
Consider `CCCCCCCCCCCCCCC[C@H](NC(=O)[C@@H](N)CCCNC(=N)N)C(=O)NC[C@@H]1CC2[C@H](C(=O)N1)[C@@H]([C@H]1O[C@@H](n3ccc(=O)[nH]c3=O)[C@H](O)[C@@H]1O)ON2CCCN` (single isomer, unassigned), for which the MIC against Enterococcus faecalis [2] is 32 µg/mL (≈ 37 µM); against Enterococcus faecium, 16 µg/mL (≈ 18.5 µM); against Staphylococcus aureus [3], 32 µg/mL (≈ 37 µM); with Staphylococcus aureus [4], over 64 µg/mL; in the test with Enterococcus faecalis [5], 32 µg/mL (≈ 37 µM).
With `NC[C@H]1O[C@@H](O[C@@H](Cn2cc(Cc3ccc(COc4ccc(C(=O)c5ccccc5)cc4)cc3)nn2)[C@H]2O[C@@H](n3ccc(=O)[nH]c3=O)[C@H](O)[C@@H]2O)[C@H](O)[C@@H]1O`, half-maximal inhibition in test [1] (IC50) required 100 µM.
On to `CCCCCCCCCCCCCCCC(=O)NC[C@@H]1CC2[C@H](C(=O)N1CCCNC(=N)N)[C@@H]([C@H]1O[C@@H](n3ccc(=O)[nH]c3=O)[C@H](O)[C@@H]1O)ON2CCCN` (single isomer, unassigned), for which the MIC against Enterococcus faecalis [2] is 16 µg/mL (≈ 20.6 µM); in the test on Enterococcus faecium, 8 µg/mL (≈ 10.3 µM); with Staphylococcus aureus [3], 16 µg/mL (≈ 20.6 µM); with Staphylococcus aureus [4], 16 µg/mL (≈ 20.6 µM); against Enterococcus faecalis [5] it was 16 µg/mL (≈ 20.6 µM).
`CC(=O)NC[C@H]1O[C@@H](OC[C@H]2O[C@@H](n3ccc(=O)[nH]c3=O)[C@H](O)[C@@H]2O)[C@H](O)[C@@H]1O` returned an IC50 with Escherichia coli of over 1000 µM.
As for `NCCCCCCCCCc1cn(C[C@H](O[C@@H]2O[C@H](CN)[C@@H](O)[C@H]2O)[C@H]2O[C@@H](n3ccc(=O)[nH]c3=O)[C@H](O)[C@@H]2O)nn1`, the concentration for half-maximal inhibition (IC50) in test [1] is 250 µM.
In the case of `NC[C@H]1O[C@@H](OC[C@@H]2C[C@@H](O)[C@H](n3ccc(=O)[nH]c3=O)O2)[C@H](O)[C@@H]1O`, the IC50 with Escherichia coli worked out at 10 µM.
Same read-out and setting: in the case of `O=CNC[C@H]1O[C@@H](OC[C@H]2O[C@@H](n3ccc(=O)[nH]c3=O)[C@H](O)[C@@H]2O)[C@H](O)[C@@H]1O` it was over 1000 µM; in that of `O=c1ccn([C@@H]2O[C@H](CO[C@@H]3O[C@H](CO)[C@@H](O)[C@H]3O)[C@@H](O)[C@H]2O)c(=O)[nH]1`, over 1000 µM.
In test [1], `NC[C@H]1O[C@@H](O[C@@H](Cc2cn(CCCCCO)nn2)[C@H]2O[C@@H](n3ccc(=O)[nH]c3=O)[C@H](O)[C@@H]2O)[C@H](O)[C@@H]1O` displayed an IC50 of 400 µM.
Regarding `CCCCCCCCCCCCCCCC(=O)NC[C@@H]1CC[C@H]2C(C(=O)N1CCCNC(=N)N)[C@H]([C@H]1O[C@@H](n3ccc(=O)[nH]c3=O)[C@H](O)[C@@H]1O)ON2CCCN` (single isomer, unassigned), the minimal inhibitory concentration (MIC) is 16 µg/mL (≈ 20.2 µM) with Enterococcus faecalis [2]; 16 µg/mL (≈ 20.2 µM) with Enterococcus faecium; 16 µg/mL (≈ 20.2 µM) against Staphylococcus aureus [3]; over 64 µg/mL in the test with Staphylococcus aureus [4]; 16 µg/mL (≈ 20.2 µM) in the test on Enterococcus faecalis [5].
On to `CNC[C@H]1O[C@@H](OC[C@H]2O[C@@H](n3ccc(=O)[nH]c3=O)[C@H](O)[C@@H]2O)[C@H](O)[C@@H]1O`, for which the IC50 with Escherichia coli came out at 45 µM.
The same measure, in the same setting: in the case of `CCCCCCNC[C@H]1O[C@@H](OC[C@H]2O[C@@H](n3ccc(=O)[nH]c3=O)[C@H](O)[C@@H]2O)[C@H](O)[C@@H]1O` it was 130 µM; in that of `NC[C@H]1O[C@@H](OC[C@@H]2CC[C@H](n3ccc(=O)[nH]c3=O)O2)[C@H](O)[C@@H]1O`, 120 µM.
Same read-out and setting: in the case of `NC[C@H]1O[C@@H](OC[C@H]2O[C@@H](n3ccc(=O)[nH]c3=O)C[C@@H]2O)[C@H](O)[C@@H]1O` it was 80 µM; in that of `CC(C)NC[C@H]1O[C@@H](OC[C@H]2O[C@@H](n3ccc(=O)[nH]c3=O)[C@H](O)[C@@H]2O)[C@H](O)[C@@H]1O`, 180 µM; in that of `CCNC[C@H]1O[C@@H](OC[C@H]2O[C@@H](n3ccc(=O)[nH]c3=O)[C@H](O)[C@@H]2O)[C@H](O)[C@@H]1O`, 150 µM.
On to `NC[C@H]1O[C@@H](O[C@@H](Cn2cc(CCOCCOCCOCCOCCO)nn2)[C@H]2O[C@@H](n3ccc(=O)[nH]c3=O)[C@H](O)[C@@H]2O)[C@H](O)[C@@H]1O`, for which the IC50 in test [1] worked out at 450 µM.
`NCCCCCCCCCn1cc(C[C@H](O[C@@H]2O[C@H](CN)[C@@H](O)[C@H]2O)[C@H]2O[C@@H](n3ccc(=O)[nH]c3=O)[C@H](O)[C@@H]2O)nn1` registered a half-inhibitory concentration (IC50) in test [1] of 200 µM. Against the preceding compound, the IC50 is about 2.2-fold lower.
A word on the MIC50: it is the lowest concentration that inhibits either 50% of growth or 50% of the strains tested, depending on the study. A low value points to higher susceptibility. Regarding `CCCCCCCCCCCCCCCC(=O)O[C@H]1CN(C)[C@@H]([C@H](O)[C@H]2O[C@@H](n3ccc(=O)[nH]c3=O)[C@H](O)[C@@H]2O)C(=O)N(C)[C@@H]1C(=O)O`, the MIC50 in the test with Escherichia coli was over 100 µg/mL.
As for `NC[C@H]1O[C@@H](O[C@@H](Cc2cn(CCCCCCCCCCO)nn2)[C@H]2O[C@@H](n3ccc(=O)[nH]c3=O)[C@H](O)[C@@H]2O)[C@H](O)[C@@H]1O`, in test [1], the IC50 came to 40 µM.
The same measure, in the same setting: in the case of `NC[C@H]1O[C@@H](O[C@@H](Cc2cn(CCCCCCCCCCOc3ccc(C(=O)c4ccccc4)cc3)nn2)[C@H]2O[C@@H](n3ccc(=O)[nH]c3=O)[C@H](O)[C@@H]2O)[C@H](O)[C@@H]1O` it was 25 µM.
In the test on Escherichia coli, `NC[C@@H]1C[C@@H](O)[C@H](OC[C@H]2O[C@@H](n3ccc(=O)[nH]c3=O)[C@H](O)[C@@H]2O)O1` displayed a concentration for half-maximal inhibition (IC50) of over 1000 µM.
In turn, `CCCCCCCCCCCCCCCC(=O)O[C@H]1CN(C)[C@@H]([C@@H](C)O[C@@H]2O[C@H](CN)[C@@H](O)[C@H]2O)C(=O)N(C)[C@@H]1C(=O)O` had an MIC50 in the test on Escherichia coli of over 100 µg/mL.
The compound `NC[C@H]1O[C@@H](O[C@@H](Cn2cc(CCCCCO)nn2)[C@H]2O[C@@H](n3ccc(=O)[nH]c3=O)[C@H](O)[C@@H]2O)[C@H](O)[C@@H]1O` returned a half-inhibitory concentration (IC50) in test [1] of 400 µM.
